Assay results taken from US12077503B2, “Substituted cyclic amides and their use as herbicides” (FMC CORPORATION, priority 2015, dated 2024).

Tests used:
Type in all cases: in vivo
corn (Zea mays) [1] = experiment: Test G Pre-Emergence Protocol; conditions: Zea mays, pre-emergence, 312 h, evaluated after 13 days; for plant injury at 15.625 g/ha: 15.625 g ai/ha; for plant injury at 15.625 g/ha / plant injury at 250 g/ha: read-out: Corn damage rating (100=total damage to plant; 0=no damage to plant); for plant injury at 62.5 g/ha: 62.5 g ai/ha, 100=total damage to plant, 0=no damage to plant, read-out: plant damage rating, Corn; for plant injury at 250 g/ha: 250 g ai/ha
In short: (§1)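 Scores are visual damage ratings from 0 (no damage) to 100 (total plant kill), taken 13 days after treatment. Compound was sprayed one day post-sowing at 15.625, 62.5 or 250 g/ha in 50:50 acetone/water with 0.5% Tween 20.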

[2] = tested on: barnyardgrass (Echinochloa crus-galli); experiment: Test G Pre-Emergence Protocol; conditions: Echinochloa crus-galli, pre-emergence, 312 h, evaluated after 13 days; for pest or weed control at 15.625 g/ha: 15.625 g ai/ha, read-out: Barnyard grass damage rating (100=total damage to plant; 0=no damage to plant); for pest or weed control at 62.5 g/ha: 62.5 g ai/ha, 100=total damage to plant, 0=no damage to plant, read-out: plant damage rating, Barnyardgrass; for pest or weed control at 250 g/ha: 250 g ai/ha, read-out: Barnyardgrass damage rating (100=total damage to plant; 0=no damage to plant)
In short: as §1

[3] = tested on: redroot pigweed (Amaranthus retroflexus); experiment: Test G Pre-Emergence Protocol; conditions: Amaranthus retroflexus, pre-emergence, 312 h, evaluated after 13 days; for pest or weed control at 15.625 g/ha: 15.625 g ai/ha; for pest or weed control at 15.625 g/ha / pest or weed control at 250 g/ha: read-out: Pigweed, Redroot damage rating (100=total damage to plant; 0=no damage to plant); for pest or weed control at 62.5 g/ha: 62.5 g ai/ha, 100=total damage to plant, 0=no damage to plant, read-out: plant damage rating, Pigweed, Redroot; for pest or weed control at 250 g/ha: 250 g ai/ha
In short: as §1

[4] = tested on: giant foxtail (Setaria faberi); experiment: Test G Pre-Emergence Protocol; conditions: Setaria faberi, pre-emergence, 312 h, evaluated after 13 days; for pest or weed control at 15.625 g/ha: 15.625 g ai/ha; for pest or weed control at 15.625 g/ha / pest or weed control at 250 g/ha: read-out: Foxtail, Giant damage rating (100=total damage to plant; 0=no damage to plant); for pest or weed control at 62.5 g/ha: 62.5 g ai/ha, 100=total damage to plant, 0=no damage to plant, read-out: plant damage rating, Foxtail, Giant; for pest or weed control at 250 g/ha: 250 g ai/ha
In short: as §1

[5] = tested on: velvetleaf (Abutilon theophrasti); experiment: Test G Pre-Emergence Protocol; conditions: Abutilon theophrasti, pre-emergence, 312 h, evaluated after 13 days; for pest or weed control at 15.625 g/ha: 15.625 g ai/ha; for pest or weed control at 15.625 g/ha / pest or weed control at 250 g/ha: read-out: Velvetleaf damage rating (100=total damage to plant; 0=no damage to plant); for pest or weed control at 62.5 g/ha: 62.5 g ai/ha, 100=total damage to plant, 0=no damage to plant, read-out: plant damage rating, Velvetleaf; for pest or weed control at 250 g/ha: 250 g ai/ha
In short: as §1

[6] = tested on: ivy-leaved morning glory (Ipomoea hederacea); experiment: Test G Pre-Emergence Protocol; conditions: Ipomoea, pre-emergence, 312 h, evaluated after 13 days; for pest or weed control at 15.625 g/ha: 15.625 g ai/ha, read-out: Morning-glory, Ivy-leaved damage rating (100=total damage to plant; 0=no damage to plant); for pest or weed control at 62.5 g/ha: 62.5 g ai/ha, 100=total damage to plant, 0=no damage to plant, read-out: plant damage rating, Morningglory, Ivy-leaved; for pest or weed control at 250 g/ha: 250 g ai/ha, read-out: Morningglory, Ivy-leaved damage rating (100=total damage to plant; 0=no damage to plant)
In short: as §1

corn (Zea mays) [7] = experiment: Test G Post-Emergence Protocol; conditions: Zea mays, post-emergence, 312 h; for plant injury at 15.625 g/ha: 15.625 g ai/ha, evaluated after 13 days (100=total damage to plant; 0=no damage to plant), read-out: Corn damage rating; for plant injury at 62.5 g/ha: 62.5 g ai/ha, read-out: Corn damage rating (100=total damage to plant; 0=no damage to plant); for plant injury at 62.5 g/ha / plant injury at 250 g/ha: evaluated after 13 days; for plant injury at 250 g/ha: 250 g ai/ha, read-out: damage to plant, Corn (100=total damage to plant; 0=no damage to plant)
In short: (§2)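 Post-emergence herbicidal damage, scored visually 0–100 at 13 days. Application at 15.625, 62.5 or 250 g/ha onto 8-day-old plants grown under glasshouse control.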

[8] = tested on: barnyardgrass (Echinochloa crus-galli); experiment: Test G Post-Emergence Protocol; conditions: Echinochloa crus-galli, post-emergence, 312 h; for pest or weed control at 15.625 g/ha: 15.625 g ai/ha, evaluated after 13 days (100=total damage to plant; 0=no damage to plant), read-out: Barnyardgrass damage rating; for pest or weed control at 62.5 g/ha: 62.5 g ai/ha, read-out: Barnyardgrass damage rating (100=total damage to plant; 0=no damage to plant); for pest or weed control at 62.5 g/ha / pest or weed control at 250 g/ha: evaluated after 13 days; for pest or weed control at 250 g/ha: 250 g ai/ha, read-out: damage to plant, Barnyardgrass (100=total damage to plant; 0=no damage to plant)
In short: as §2

[9] = tested on: redroot pigweed (Amaranthus retroflexus); experiment: Test G Post-Emergence Protocol; conditions: Amaranthus retroflexus, post-emergence, 312 h; for pest or weed control at 15.625 g/ha: 15.625 g ai/ha, evaluated after 13 days (100=total damage to plant; 0=no damage to plant), read-out: Pigweed, Redroot damage rating; for pest or weed control at 62.5 g/ha: 62.5 g ai/ha, read-out: Pigweed, Redroot damage rating (100=total damage to plant; 0=no damage to plant); for pest or weed control at 62.5 g/ha / pest or weed control at 250 g/ha: evaluated after 13 days; for pest or weed control at 250 g/ha: 250 g ai/ha, read-out: damage to plant, Pigweed, Redroot (100=total damage to plant; 0=no damage to plant)
In short: as §2

[10] = tested on: giant foxtail (Setaria faberi); experiment: Test G Post-Emergence Protocol; conditions: Setaria faberi, post-emergence, 312 h; for pest or weed control at 15.625 g/ha: 15.625 g ai/ha, evaluated after 13 days (100=total damage to plant; 0=no damage to plant), read-out: Foxtail, Giant damage rating; for pest or weed control at 62.5 g/ha: 62.5 g ai/ha, read-out: Foxtail, Giant damage rating (100=total damage to plant; 0=no damage to plant); for pest or weed control at 62.5 g/ha / pest or weed control at 250 g/ha: evaluated after 13 days; for pest or weed control at 250 g/ha: 250 g ai/ha, read-out: damage to plant, Foxtail, Giant (100=total damage to plant; 0=no damage to plant)
In short: as §2

[11] = tested on: velvetleaf (Abutilon theophrasti); experiment: Test G Post-Emergence Protocol; conditions: Abutilon theophrasti, post-emergence, 312 h; for pest or weed control at 15.625 g/ha: 15.625 g ai/ha, evaluated after 13 days (100=total damage to plant; 0=no damage to plant), read-out: Velvetleaf damage rating; for pest or weed control at 62.5 g/ha: 62.5 g ai/ha, read-out: Velvetleaf damage rating (100=total damage to plant; 0=no damage to plant); for pest or weed control at 62.5 g/ha / pest or weed control at 250 g/ha: evaluated after 13 days; for pest or weed control at 250 g/ha: 250 g ai/ha, read-out: damage to plant, Velvetleaf (100=total damage to plant; 0=no damage to plant)
In short: as §2

[12] = tested on: ivy-leaved morning glory (Ipomoea hederacea); experiment: Test G Post-Emergence Protocol; conditions: Ipomoea, post-emergence, 312 h; for pest or weed control at 15.625 g/ha: 15.625 g ai/ha, evaluated after 13 days (100=total damage to plant; 0=no damage to plant), read-out: Morningglory, Ivy-leaved damage rating; for pest or weed control at 62.5 g/ha: 62.5 g ai/ha, read-out: Morningglory, Ivy-leaved damage rating (100=total damage to plant; 0=no damage to plant); for pest or weed control at 62.5 g/ha / pest or weed control at 250 g/ha: evaluated after 13 days; for pest or weed control at 250 g/ha: 250 g ai/ha, read-out: damage to plant, Morningglory, Ivy-leaved (100=total damage to plant; 0=no damage to plant)
In short: as §2

| Compound | plant injury at 15.625 g/ha (corn (Zea mays) [1]) | plant injury at 62.5 g/ha (corn (Zea mays) [1]) | plant injury at 250 g/ha (corn (Zea mays) [1]) | pest or weed control at 15.625 g/ha [2] | pest or weed control at 62.5 g/ha [2] | pest or weed control at 250 g/ha [2] | pest or weed control at 15.625 g/ha [3] | pest or weed control at 62.5 g/ha [3] | pest or weed control at 250 g/ha [3] | pest or weed control at 15.625 g/ha [4] | pest or weed control at 62.5 g/ha [4] | pest or weed control at 250 g/ha [4] | pest or weed control at 15.625 g/ha [5] | pest or weed control at 62.5 g/ha [5] | pest or weed control at 250 g/ha [5] | pest or weed control at 15.625 g/ha [6] | pest or weed control at 62.5 g/ha [6] | pest or weed control at 250 g/ha [6] | plant injury at 15.625 g/ha (corn (Zea mays) [7]) | plant injury at 62.5 g/ha (corn (Zea mays) [7]) | further results |
| --- | --- | --- | --- | --- | --- | --- | --- | --- | --- | --- | --- | --- | --- | --- | --- | --- | --- | --- | --- | --- | --- |
| Cc1cccc(NC(=O)[C@H]2C(=O)N(C)C[C@@H]2c2ccc(C(F)(F)F)cc2)c1C#N (racemic) [Compound 1413] | 0% | 0% | 0% | 0% | 20% | 80% | 0% | 20% | 20% | 0% | 60% | 90% | 0% | 0% | 0% | 0% | 0% | 0% | 0% | 0% | plant injury at 250 g/ha (corn (Zea mays) [7]): 0%; pest or weed control at 15.625 g/ha [8]: 20%; pest or weed control at 62.5 g/ha [8]: 50%; pest or weed control at 250 g/ha [8]: 60%; pest or weed control at 15.625 g/ha [9]: 0%; pest or weed control at 62.5 g/ha [9]: 10%; pest or weed control at 250 g/ha [9]: 20%; pest or weed control at 15.625 g/ha [10]: 40%; pest or weed control at 62.5 g/ha [10]: 70%; pest or weed control at 250 g/ha [10]: 70%; pest or weed control at 15.625 g/ha [11]: 0%; pest or weed control at 62.5 g/ha [11]: 0%; pest or weed control at 250 g/ha [11]: 10%; pest or weed control at 15.625 g/ha [12]: 0%; pest or weed control at 62.5 g/ha [12]: 0%; pest or weed control at 250 g/ha [12]: 0% |
| CN1C[C@@H](c2ccc(C(F)(F)F)cc2)[C@H](C(=O)Nc2cc(C(F)(F)F)no2)C1=O (racemic) [Compound 1511] | 0% | 0% | 0% | 0% | 0% | 0% | 0% | 0% | 0% | 0% | 0% | 0% | 0% | 0% | 0% | 0% | 0% | 0% | 0% | 0% | plant injury at 250 g/ha (corn (Zea mays) [7]): 0%; pest or weed control at 15.625 g/ha [8]: 0%; pest or weed control at 62.5 g/ha [8]: 0%; pest or weed control at 250 g/ha [8]: 0%; pest or weed control at 15.625 g/ha [9]: 0%; pest or weed control at 62.5 g/ha [9]: 0%; pest or weed control at 250 g/ha [9]: 0%; pest or weed control at 15.625 g/ha [10]: 0%; pest or weed control at 62.5 g/ha [10]: 0%; pest or weed control at 250 g/ha [10]: 0%; pest or weed control at 15.625 g/ha [11]: 0%; pest or weed control at 62.5 g/ha [11]: 0%; pest or weed control at 250 g/ha [11]: 0%; pest or weed control at 15.625 g/ha [12]: 0%; pest or weed control at 62.5 g/ha [12]: 0%; pest or weed control at 250 g/ha [12]: 0% |
